In this assay the target is human EP4 receptor (Homo sapiens (Human), UniProt P35408). The assay can be described thus: Test for antagonism of the human EP4 receptor signal (cAMP HTRF). The assay is classed as cell-based. The conditions noted are these: cells expressing hEP4, PGE2 at EC80 (0.4 nM), cAMP TR-FRET; read-out: Antagonism hEP4 IC50. The source says:
The binding of the agonist prostaglandin E2 (PGE2) to the EP4 subtype of human hPGE2-R (hEP4-R) induces the activation of membrane-bound adenylate cyclases and thus the formation of cAMP. In the presence of the phosphodiesterase inhibitor IBMX, this cAMP accumulates intracellularly and is employed in a competitive detection procedure after cell lysis. In this procedure, it competes with a fluorescence-labelled cAMP (cAMP-d2) for binding to an Eu cryptate-labelled anti-cAMP antibody. In the absence of cellular cAMP, a complex is formed between the Eu cryptate-labelled anti-cAMP antibody and the cAMP-d2 molecule, which after excitation at 337 nm makes possible an energy transfer based on FRET (fluorescence resonance energy transfer) to the cAMP-d2 tracer and leads to a long-lasting fluorescence signal (emission at 665 and 620 nm). This signal is time-resolved, i.e. measured in a suitable measuring apparatus after decay of the background fluorescence (time resolved; TR-FRET). The wave ratio determination (emission 665 nm/emission 620 nm*10000) moreover makes it possible to standardize individual measurement differences in the added amounts of the detection reagents.
By means of prostaglandin E2 administration and increase in the intracellular cAMP, a lowering of the FRET signal occurs, which in the case of an antagonistic substance action increases again.
A further 20 min at room temperature later, the cell lysate is measured according to the manufacturer's instructions in a TR-FRET-suitable measuring apparatus (compare cAMP HTRF assay kit: Cisbio International 62AM6PEJ high range)
For orientation: In TR-FRET formats the signal depends on donor and acceptor labels being close together.

pIC50: −log10 of the molar value.

The term pIC50 denotes the IC50 on a negative log10 scale, so that one unit is a factor of ten.

Sequence of human EP4 receptor (P35408 whole entry): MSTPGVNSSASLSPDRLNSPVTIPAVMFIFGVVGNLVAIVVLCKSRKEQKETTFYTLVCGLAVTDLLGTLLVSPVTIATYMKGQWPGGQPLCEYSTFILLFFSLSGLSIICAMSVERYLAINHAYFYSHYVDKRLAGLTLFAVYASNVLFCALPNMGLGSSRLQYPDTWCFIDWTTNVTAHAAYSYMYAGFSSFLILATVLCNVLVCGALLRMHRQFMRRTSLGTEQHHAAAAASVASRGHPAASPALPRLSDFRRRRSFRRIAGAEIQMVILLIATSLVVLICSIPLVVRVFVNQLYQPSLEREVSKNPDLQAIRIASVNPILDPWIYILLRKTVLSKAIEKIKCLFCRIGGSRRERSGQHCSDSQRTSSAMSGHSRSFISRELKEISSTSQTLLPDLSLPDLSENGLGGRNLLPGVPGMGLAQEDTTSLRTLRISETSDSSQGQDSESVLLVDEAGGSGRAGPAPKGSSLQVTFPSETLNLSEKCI

In the case of `CCn1c2ccccc2c2cc(-c3nc4cc(C(=O)O)ccc4n3CC3CC3(C)C)ccc21` (centres unmarked) [Example 121, 1-[(2,2-Dimethylcyclopropyl)methyl]-2-(9-ethyl-9H-carbazol-3-yl)-1H-benzimidazole-5-carboxylic acid], the pIC50 was 7.00.

Consider `CCn1c2ccccc2c2cc(-c3nc4cc(C(=O)NS(=O)(=O)c5ccc(C)cn5)ccc4n3CCOC)ccc21` [Example 63, 2-(9-Ethyl-9H-carbazol-3-yl)-1-(2-methoxyethyl)-N-[(5-methylpyridin-2-yl)sulphonyl]-1H-benzimidazole-5-carboxamide], for which the pIC50 was 6.93.

Take `CCn1c2ccccc2c2cc(-c3nc4cc(C(=O)O)c(F)cc4n3CCOC)ccc21` [Example 113, 2-(9-Ethyl-9H-carbazol-3-yl)-6-fluoro-1-(2-methoxyethyl)-1H-benzimidazole-5-carboxylic acid]: the pIC50 was 7.23. For the compound `CCn1c2ccccc2c2cc(-c3nc4cc(C(=O)O)ccc4n3CC(O)C3CC3)ccc21` (centres unmarked) [Example 137, 1-(2-Cyclopropyl-2-hydroxyethyl)-2-(9-ethyl-9H-carbazol-3-yl)-1H-benzimidazole-5-carboxylic acid], the negative logarithm of the IC50 (pIC50) is 7.73. As to `CCn1c2ccccc2c2cc(-c3nc4cc(C(=O)NS(=O)(=O)CCc5cccc(Cl)c5)ccc4n3CCOC)ccc21` [Example 56, N-{[2-(3-Chlorophenyl)ethyl]sulphonyl}-2-(9-ethyl-9H-carbazol-3-yl)-1-(2-methoxyethyl)-1H-benzimidazole-5-carboxamide], the pIC50 was 6.62. On to `O=C(O)c1ccc2c(c1)nc(-c1ccc3c(c1)c1ccccc1n3CC1CCC1)n2CC1CC1` [Example 125, 2-[9-(Cyclobutylmethyl)-9H-carbazol-3-yl]-1-(cyclopropylmethyl)-1H-benzimidazole-5-carboxylic acid], for which the negative-log IC50 (pIC50) is 6.59. As to `CCn1c2ccccc2c2cc(-c3nc4cc(C(C)(C)O)ccc4n3CCOC)ccc21` [Example 101, 2-[2-(9-Ethyl-9H-carbazol-3-yl)-1-(2-methoxyethyl)-1H-benzimidazol-5-yl]propan-2-ol], the pIC50 is 6.00. For the compound `COCCn1c(-c2ccc3c(c2)c2ccccc2n3CCOC)nc2cc(C(=O)O)ccc21` [Example 98, 1-(2-Methoxyethyl)-2-[9-(2-methoxyethyl)-9H-carbazol-3-yl]-1H-benzimidazole-5-carboxylic acid], the negative logarithm of the IC50 (pIC50) is 6.95. For the compound `CCn1c2ccccc2c2cc(-c3nc4cc(C(=O)NCCN(C)C)ccc4n3CCOC)ccc21` [Example 86, N-[2-(Dimethylamino)ethyl]-2-(9-ethyl-9H-carbazol-3-yl)-1-(2-methoxyethyl)-1H-benzimidazole-5-carboxamide], the negative logarithm of the IC50 (pIC50) was 6.61. Turning to `CCn1c2ccccc2c2cc(-c3nc4cc(C(=O)N5CCNC(=O)C5)ccc4n3CC3CC3)ccc21` [Example 28, 4-{[1-(Cyclopropylmethyl)-2-(9-ethyl-9H-carbazol-3-yl)-1H-benzimidazol-5-yl]carbonyl}-piperazin-2-one], the negative logarithm of the IC50 (pIC50) is 6.91. On to `CCn1c2ccccc2c2cc(-c3nc4c(Cl)c(C(=O)OC)ccc4n3CC3CC3)ccc21` [Example 7, Methyl 4-chloro-1-(cyclopropylmethyl)-2-(9-ethyl-9H-carbazol-3-yl)-1H-benzimidazole-5-carboxylate], for which the pIC50 is 5.84. As to `CCn1c2ccccc2c2cc(-c3nc4cc(C(=O)O)ccc4n3CC3CCO3)ccc21` (centres unmarked) [Example 132, 2-(9-Ethyl-9H-carbazol-3-yl)-1-(oxetan-2-ylmethyl)-1H-benzimidazole-5-carboxylic acid], the pIC50 was 7.61.

`CCn1c2ccccc2c2cc(-c3nc4cc(C(=O)NCCN5CCOCC5)ccc4n3CCOC)ccc21` [Example 78, 2-(9-Ethyl-9H-carbazol-3-yl)-1-(2-methoxyethyl)-N-[2-(morpholin-4-yl)ethyl]-1H-benzimidazole-5-carboxamide]: the negative logarithm of the IC50 (pIC50) is 7.13. On to `CCOC(=O)c1ccc2c(c1)nc(-c1ccc3c(c1)c1ccccc1n3CC)n2CCN1CCCC1` [Example 37, Ethyl 2-(9-ethyl-9H-carbazol-3-yl)-1-[2-(pyrrolidin-1-yl)ethyl]-1H-benzimidazole-5-carboxylate], for which the negative-log IC50 (pIC50) was 5.42. As to `CCn1c2ccccc2c2cc(-c3nc4cc(C(=O)N5CCC5)ccc4n3CC3CC3)ccc21` [Example 80, Azetidin-1-yl[1-(cyclopropylmethyl)-2-(9-ethyl-9H-carbazol-3-yl)-1H-benzimidazol-5-yl]-methanone], the pIC50 was 7.17. Consider `CCn1c2ccccc2c2cc(-c3nc4cc(C(=O)O)ccc4n3C)ccc21` [Example 94, 2-(9-Ethyl-9H-carbazol-3-y1)-1-methyl-1 H-benzimidazole-5-carboxylic acid], for which the negative logarithm of the IC50 (pIC50) is 6.71.

For `CCn1c2ccccc2c2cc(-c3nc4cc(C(=O)O)c(OC)cc4n3CC3CC3)ccc21` [Example 102, 1-(Cyclopropylmethyl)-2-(9-ethyl-9H-carbazol-3-yl)-6-methoxy-1H-benzimidazole-5-carboxylic acid], the negative-log IC50 (pIC50) was 5.55.

`CCn1c2ccccc2c2cc(-c3nc4cc(C(=O)O)ccc4n3C[C@H](O)CO)ccc21` [Example 138, 1-[(2S)-2,3-Dihydroxypropyl]-2-(9-ethyl-9H-carbazol-3-yl)-1H-benzimidazole-5-carboxylic acid]: the pIC50 was 6.25. Take `C=CCn1c(-c2ccc3c(c2)c2ccccc2n3CC)nc2cc(C(=O)O)ccc21` [Example 2, 1-Allyl-2-(9-ethyl-9H-carbazol-3-yl)-1H-benzimidazole-5-carboxylic acid]: the negative-log IC50 (pIC50) is 6.51. For `CCn1c2ccccc2c2cc(-c3nc4cc(C(=O)O)ccc4n3CCS(C)(=O)=O)ccc21` [Example 136, 2-(9-Ethyl-9H-carbazol-3-yl)-1-[2-(methylsulphonyl)ethyl]-1H-benzimidazole-5-carboxylic acid], the negative-log IC50 (pIC50) is 6.49. As to `CCn1c2ccccc2c2cc(-c3nc4cc(C(=O)NS(=O)(=O)CCOC)ccc4n3CCOC)ccc21` [Example 59, 2-(9-Ethyl-9H-carbazol-3-yl)-1-(2-methoxyethyl)-N-[(2-methoxyethyl)sulphonyl]-1H-benzimidazole-5-carboxamide], the pIC50 was 7.77.

As to `CCn1c2ccccc2c2cc(-c3nc4cc(C(=O)O)ccc4n3CCOC(F)(F)F)ccc21` [Example 130, 2-(9-Ethyl-9H-carbazol-3-yl)-1-[2-(trifluoromethoxy)ethyl]-1H-benzimidazole-5-carboxylic acid], the pIC50 was 7.84.

Take `CCn1c2ccccc2c2cc(-c3nc4cc(C(=O)O)ccc4n3CCC3CC3)ccc21` [Example 117, 1-(2-Cyclopropylethyl)-2-(9-ethyl-9H-carbazol-3-yl)-1H-benzimidazole-5-carboxylic acid]: the negative logarithm of the IC50 (pIC50) is 7.66.

In the case of `CCn1c2ccccc2c2cc(-c3nc4cc(C(=O)NS(=O)(=O)c5ccccc5OC(F)(F)F)ccc4n3CCOC)ccc21` [Example 54, 2-(9-Ethyl-9H-carbazol-3-yl)-1-(2-methoxyethyl)-N-{[2-(trifluoromethoxy)phenyl]-sulphonyl}-1H-benzimidazole-5-carboxamide], the pIC50 is 7.75.

`CCn1c2ccc(OC)cc2c2cc(-c3nc4cc(C(=O)O)ccc4n3CCOC)ccc21` [Example 32, 2-(9-Ethyl-6-methoxy-9H-carbazol-3-yl)-1-(2-methoxyethyl)-1H-benzimidazole-5-carboxylic acid]: the pIC50 is 7.56.

For `CCn1c2ccncc2c2cc(-c3nc4cc(C(=O)O)ccc4n3CC3CC3)ccc21` [Example 109, 1-(Cyclopropylmethyl)-2-(5-ethyl-5H-pyrido[4,3-b]indol-8-yl)-1H-benzimidazole-5-carboxylic acid], the pIC50 was 6.75. Then `C=CCn1c(-c2ccc3c(c2)c2ccccc2n3CC)nc2cc(C(N)=O)ccc21` [Example 89, 1-Allyl-2-(9-ethyl-9H-carbazol-3-yl)-1H-benzimidazole-5-carboxamide], with 5.44. For `CCn1c2ccccc2c2cc(-c3nc4cc(C(=O)O)ccc4n3CC3COC3)ccc21` [Example 123, 2-(9-Ethyl-9H-carbazol-3-yl)-1-(oxetan-3-ylmethyl)-1H-benzimidazole-5-carboxylic acid] the value was 7.29. Then `CCn1c2ccccc2c2cc(-c3nc4cc(C(N)=O)ccc4n3CCOC)ccc21` [Example 82, 2-(9-Ethyl-9H-carbazol-3-yl)-1-(2-methoxyethyl)-1H-benzimidazole-5-carboxamide], with 6.87; and `CCn1c2ccccc2c2cc(-c3nc4cc(C(=O)NCCOC)ccc4n3CC3CC3)ccc21` [Example 21, 1-(Cyclopropylmethyl)-2-(9-ethyl-9H-carbazol-3-yl)-N-(2-methoxyethyl)-1H-benzimidazole-5-carboxamide], with 6.99; and `CCn1c2ccccc2c2cc(-c3nc4cc(C(=O)NCCN5CCOCC5)ccc4n3CC3CC3)ccc21` [Example 79, 1-(Cyclopropylmethyl)-2-(9-ethyl-9H-carbazol-3-yl)-N-[2-(morpholin-4-yl)ethyl]-1H-benzimidazole-5-carboxamide], with 6.97. As for `CCn1c2ccccc2c2cc(-c3nc4cc(C(=O)O)ccc4n3CC3CC3)ccc21` [Example 6, 1-(Cyclopropylmethyl)-2-(9-ethyl-9H-carbazol-3-yl)-1H-benzimidazole-5-carboxylic acid], the pIC50 was 7.84.

For the origin of these results see patent publication US9708311B2, “Benzimidazole derivatives as EP4 antagonists” (BAYER PHARMA AKTIENGESELLSCHAFT, priority 2012, dated 2017).
